Experimental data published in patent US20220160009A1, “COMPOSITION COMPRISING TRANSFRUCTOSYLATED STEVIOL GLYCOSIDE” (CJ CHEILJEDANG CORPORATION, priority 2019, published 2022).

Columns and labels:
[1] = Sensory descriptive analysis by experts (n=15); settings: diluted to equivalent sweetness based on 10 brix of sugar
Method: The transfructosylated Stevioside (STV-Fru) and the transfructosylated Rebaudioside A (RA-Fru) prepared in Preparation Example 1 were diluted to the sweetness equivalent to Stevioside (STV) and Rebaudioside A (RA) (sweetness based on 10 brix of sugar), respectively, and then presented to experts (n=15) for descriptive analysis.

[2] = Sensory preference evaluation by 15 panels; settings: diluted to sweetness equivalent to 10% (w/w) or 10 brix of sugar, 9-point scale converted to 5-point scale
Method: Prior to sensory evaluation, four samples of Example 1 (STV, STV-Fru, RA, RA-Fru) were diluted to the sweetness equivalent to 10% (w/w) or 10 brix of sugar, and the sensory evaluation was carried out on the four samples.
The evaluation was proceeded as follow: 15 panels were given the four samples and required to evaluate the sweetness preference and the overall preference of the four samples on a 9-point scale (1=very much dislike, 5=neither dislike nor like, 9=very much like).
Then, the statistical analysis was converted to a 5-point scale to verify the significant difference through paired T tests (reliability level of 95%).

[3] = listed as transfructosylated Rebaudioside A
[4] = listed as transfructosylated Stevioside

Row | Compound | Bitterness Intensity [1] | Feeling of Weight [1] | Off-smell/Off flavor Intensity [1] | Overall Preference [1] | Sweetness Intensity [1] | Sweetness Persistence [1] | Sweetness Preference [1] | Overall Preference [2] | Sweetness Preference [2] | other results
1 | C=C1C[C@@]23CC[C@H]4[C@@](C)(CCC[C@@]4(C)C(=O)O[C@@H]4O[C@H](CO)[C@@H](O)[C@H](O)[C@H]4O)[C@@H]2CC[C@]1(O[C@@H]1O[C@H](CO)[C@@H](O)[C@H](O[C@@H]2O[C@H](CO)[C@@H](O)[C@H](O)[C@H]2O)[C@H]1O[C@@H]1O[C@H](CO)[C@@H](O)[C@H](O)[C@H]1O)C3 [RA, Rebaudioside A, reference compound] | 3.4 | 2.9 | 3.3 | 2.6 | 3.2 | 2.9 | 2.5 | 2.72 | 2.51 | 
2 | C=C1C[C@@]23CC[C@H]4[C@@](C)(CCC[C@@]4(C)C(=O)O[C@@H]4O[C@H](CO[C@]5(CO)O[C@H](CO)[C@@H](O)[C@@H]5O)[C@@H](O)[C@H](O)[C@H]4O)[C@@H]2CC[C@]1(O[C@@H]1O[C@H](CO)[C@@H](O)[C@H](O[C@@H]2O[C@H](CO)[C@@H](O)[C@H](O)[C@H]2O)[C@H]1O[C@@H]1O[C@H](CO)[C@@H](O)[C@H](O)[C@H]1O)C3 [RA-Fru, 13-[(2-β-D-glucopyranosyl-3-O-β-D-glucopyranosyl-β-D-glucopyranosyl)oxy]ent-kaur-16-en-19-oic acid 6-O-β-D-fructofuranose-β-D-glucopyranosyl ester] | 1.8 | 2.7 | 2.4 | 3.5 | 3.1 | 2.6 | 3.4 | 3.73 | 3.42 | Bitterness Intensity [1, 3]: significantly low; Off-smell/Off flavor Intensity [1, 3]: significantly low; Overall Preference [1, 3]: significantly high; Sweetness Preference [1, 3]: significantly high; Overall Preference [2, 3]: excellent; Sweetness Preference [2, 3]: excellent
3 | C=C1C[C@@]23CC[C@H]4[C@@](C)(CCC[C@@]4(C)C(=O)O[C@@H]4O[C@H](CO)[C@@H](O)[C@H](O)[C@H]4O)[C@@H]2CC[C@]1(O[C@@H]1O[C@H](CO)[C@@H](O)[C@H](O)[C@H]1O[C@@H]1O[C@H](CO)[C@@H](O)[C@H](O)[C@H]1O)C3 [STV, Stevioside, reference compound] | 3.9 | 2.8 | 3.5 | 2.1 | 2.8 | 2.9 | 2.3 | 2.02 | 2.13 | 
4 | C=C1C[C@@]23CC[C@H]4[C@@](C)(CCC[C@@]4(C)C(=O)O[C@@H]4O[C@H](CO[C@]5(CO)O[C@H](CO)[C@@H](O)[C@@H]5O)[C@@H](O)[C@H](O)[C@H]4O)[C@@H]2CC[C@]1(O[C@@H]1O[C@H](CO)[C@@H](O)[C@H](O)[C@H]1O[C@@H]1O[C@H](CO)[C@@H](O)[C@H](O)[C@H]1O)C3 [STV-Fru] | 2.3 | 3.2 | 2.3 | 3.5 | 2.6 | 2.7 | 3.3 | 3.02 | 3.14 | Bitterness Intensity [1, 4]: significantly low; Off-smell/Off flavor Intensity [1, 4]: significantly low; Overall Preference [1, 4]: significantly high; Sweetness Preference [1, 4]: significantly high; Overall Preference [2, 4]: excellent; Sweetness Preference [2, 4]: excellent
